What follows are compounds tested against T1, human fascin 1 (Homo sapiens, UniProt Q16658) (assay: Fascin inhibition (actin bundling) assay, image-based). Conditions: in the presence of 50 μm of the compound relative to bundle activity when the compound was not present; read-out: Inhibition (percentage reduction of bundle activity).
T1 construct: GST (N, cleaved yes); made in house; host or cells: Escherichia coli BL21/DE3 (pGEX4T-fascin 1 plasmid)
Assay type: biochemical
How it was run: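 GST-tagged human fascin 1 from E. coli, thrombin-cleaved, was preincubated with compounds for 30 min, then polymerized actin was added; compounds were at 30 μM final. Bundles captured on poly-D-lysine plates were imaged, and background-corrected bundle length per well was computed, with DMSO-only wells as negative controls.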

inhibition at 50 µM [%] | Structure (SMILES)
100 | Cc1nocc1C(=O)Nc1nn(Cc2ccc(C(F)(F)F)cc2)c2ccccc12 [Compound 35, 3-methyl-N-(1-(4-(trifluoromethyl)benzyl)-1H-indazol-3-yl)isoxazole-4-carboxamide]
100 | O=C(Nc1nn(Cc2ccc(Cl)cc2)c2ccccc12)c1ccno1 [Compound 66, N-(1-(4-chlorobenzyl)-1H-indazol-3-yl)isoxazole-5-carboxamide]
90 | Cc1nocc1C(=O)Nc1nn(Cc2ccc(Cl)cc2)c2ccccc12 [Compound 65, N-(1-(4-chlorobenzyl)-1H-indazol-3-yl)-3-methylisoxazole-4-carboxamide]
100 | O=C(Nc1nn(Cc2ccc(C(F)(F)F)cc2)c2ccccc12)c1ccno1 [Compound 25, N-(1-(4-(trifluoromethyl)benzyl)-1H-indazol-3-yl)isoxazole-5-carboxamide]
< 10 | O=C(Nc1nn(Cc2ccccc2)c2ccccc12)c1ccoc1 [Compound 58, N-(1-benzyl-1H-indazol-3-yl)furan-3-carboxamide]
< 10 | Cc1ccc(Cn2nc(NC(=O)c3ccoc3)c3ccccc32)cc1 [Compound 78, N-(1-(4-methylbenzyl)-1H-indazol-3-yl)furan-3-carboxamide]
< 10 | O=C(Nc1nn(Cc2cccc(C(F)(F)F)c2)c2ccccc12)c1ccoc1 [Compound 48, N-(1-(3-(trifluoromethyl)benzyl)-1H-indazol-3-yl)furan-3-carboxamide]
< 10 | Cc1scnc1C(=O)Nc1nn(Cc2ccc(C(F)(F)F)cc2)c2ccccc12 [Compound 32, 5-methyl-N-(1-(4-(trifluoromethyl)benzyl)-1H-indazol-3-yl)thiazole-4-carboxamide]
10 | CCCC(=O)Nc1nn(Cc2ccc(C(F)(F)F)cc2)c2cncc(Cl)c12 [Compound 153, N-(4-chloro-1-(4-(trifluoromethyl)benzyl)-1H-pyrazolo[3,4-c]pyridin-3-yl)butyramide]
< 10 | Cc1ccc2c(NC(=O)c3scnc3C)nn(Cc3ccc(C(F)(F)F)cc3)c2n1 [Compound 135, 4-methyl-N-(6-methyl-1-(4-(trifluoromethyl)benzyl)-1H-pyrazolo[3,4-b]pyridin-3-yl)thiazole-5-carboxamide]
< 10 | Cc1occc1C(=O)Nc1nn(Cc2ccc(C#N)cc2)c2ccccc12 [Compound 88, N-(1-(4-cyanobenzyl)-1H-indazol-3-yl)-2-methylfuran-3-carboxamide]
< 10 | O=C(Nc1nn(Cc2ccc(C(F)(F)F)cc2)c2ccccc12)c1cccc(F)c1 [Compound 14, 3-fluoro-N-(1-(4-(trifluoromethyl)benzyl)-1H-indazol-3-yl)benzamide]
< 10 | Cc1nocc1C(=O)Nc1nn(Cc2ccc(C(F)(F)F)nc2)c2ccc(C#N)cc12 [Compound 99, N-(5-cyano-1-((6-(trifluoromethyl)pyridin-3-yl)methyl)-1H-indazol-3-yl)-3-methylisoxazole-4-carboxamide]
< 10 | Cc1nocc1C(=O)Nc1nn(Cc2ccc(C(F)(F)F)nc2)c2ccccc12 [Compound 93, 3-methyl-N-(1-((6-(trifluoromethyl)pyridin-3-yl)methyl)-1H-indazol-3-yl)isoxazole-4-carboxamide]
100 | O=C(Nc1nn(Cc2ccc(C(F)(F)F)cc2)c2ccccc12)c1cccnn1 [Compound 49, N-(1-(4-(trifluoromethyl)benzyl)-1H-indazol-3-yl)pyridazine-3-carboxamide]
< 10 | N#Cc1ccc2c(c1)c(NC(=O)c1ccoc1)nn2Cc1ccc(C(F)(F)F)nc1 [Compound 98, N-(5-cyano-1-((6-(trifluoromethyl)pyridin-3-yl)methyl)-1H-indazol-3-yl)furan-3-carboxamide]
< 10 | Nc1nn(Cc2ccc(C(F)(F)F)cc2)c2c(C(F)(F)F)cccc12 [Compound 111, 7-(trifluoromethyl)-1-(4-(trifluoromethyl)benzyl)-1H-indazol-3-amine]
< 10 | O=C(Nc1nn(Cc2ccc(C(F)(F)F)cc2)c2ccccc12)c1ccccc1F [Compound 12, 2-fluoro-N-(1-(4-(trifluoromethyl)benzyl)-1H-indazol-3-yl)benzamide]
< 10 | O=C(Nc1nn(Cc2ccc(C(F)(F)F)cc2)c2ccccc12)c1cscn1 [Compound 30, N-(1-(4-(trifluoromethyl)benzyl)-1H-indazol-3-yl)thiazole-4-carboxamide]

inhibition at 50 µM [%] | Structure (SMILES)
< 10 | Nc1nn(Cc2ccc(C(F)(F)F)cc2)c2ccc(C(F)(F)F)cc12 [Compound 122, 5-(trifluoromethyl)-1-(4-(trifluoromethyl)benzyl)-1H-indazol-3-amine]
< 10 | O=C(Nc1nn(Cc2ccc(C(F)(F)F)cc2)c2cc(C(F)(F)F)ccc12)c1ccoc1 [Compound 107, N-(6-(trifluoromethyl)-1-(4-(trifluoromethyl)benzyl)-1H-indazol-3-yl)furan-3-carboxamide]
80 | Cc1ncoc1C(=O)Nc1nn(Cc2ccc(C(F)(F)F)cc2)c2ccccc12 [Compound 34, 4-methyl-N-(1-(4-(trifluoromethyl)benzyl)-1H-indazol-3-yl)oxazole-5-carboxamide]
10 | FC(F)(F)c1ccc(Cn2nc(-c3ccccc3)c3ccccc32)cc1 [Compound 144, 3-Phenyl-1-(4-(trifluoromethyl)benzyl)-1H-indazole]
< 10 | Nc1nn(Cc2ccc(CO)cc2)c2ccccc12 [Compound 103, (4-((3-amino-1H-indazol-1-yl)methyl)phenyl)methanol]
< 10 | Cc1ncsc1C(=O)Nc1nn(Cc2ccc(C(F)(F)F)cc2)c2cc(C(F)(F)F)ccc12 [Compound 110, 4-methyl-N-(6-(trifluoromethyl)-1-(4-(trifluoromethyl)benzyl)-1H-indazol-3-yl)thiazole-5-carboxamide]
< 10 | O=C(Nc1nn(Cc2ccc(C(F)(F)F)cc2)c2ccccc12)c1ccc(F)cc1 [Compound 13]
< 10 | O=C(Nc1nn(Cc2ccc(C(F)(F)F)cc2)c2ccccc12)c1ccsc1Cl [Compound 38, 2-chloro-N-(1-(4-(trifluoromethyl)benzyl)-1H-indazol-3-yl)thiophene-3-carboxamide]
< 10 | Cc1ncsc1C(=O)Nc1nn(Cc2ccc(C(F)(F)F)cc2)c2c(C(F)(F)F)cccc12 [Compound 115, 4-methyl-N-(7-(trifluoromethyl)-1-(4-(trifluoromethyl)benzyl)-1H-indazol-3-yl)thiazole-5-carboxamide]
< 10 | Cc1ccc(C(=O)Nc2nn(Cc3ccc(C(F)(F)F)cc3)c3ccccc23)cc1 [Compound 16]
< 10 | Cc1ccc(Cn2nc(NC(=O)c3cccnn3)c3ccccc32)cc1 [Compound 83, N-(1-(4-methylbenzyl)-1H-indazol-3-yl)pyridazine-3-carboxamide]
< 10 | Cc1ncsc1C(=O)Nc1nn(Cc2ccc(C(F)(F)F)cc2)c2ccc(C(F)(F)F)cc12 [Compound 126, 4-methyl-N-(5-(trifluoromethyl)-1-(4-(trifluoromethyl)-bemzyl)-1H-indazol-3-yl)thiazole-5-carboxamide]
< 10 | O=C(Nc1nn(Cc2ccc(C(F)(F)F)nc2)c2ccccc12)c1ccoc1 [Compound 92, N-(1-((6-(trifluoromethyl)pyridine-3-yl)methyl)-1H-indazol-3-yl)furan-3-carboxamide]
< 10 | Nc1nn(Cc2ccc(C(F)(F)F)cc2)c2cc(C(F)(F)F)ccc12 [Compound 106, 6-(trifluoromethyl)-1-(4-(trifluoromethyl)benzyl)-1H-indazol-3-amine]
50 | O=C(Nc1nn(Cc2ccc(Cl)cc2)c2ccccc12)c1ccoc1 [Compound 64, N-(1-(4-chlorobenzyl)-1H-indazol-3-yl)furan-3-carboxamide]
< 10 | O=C(Nc1nn(Cc2ccc(C(F)(F)F)cc2)c2ccccc12)c1cc(Cl)ccn1 [Compound 18]
80 | Cc1cnoc1C(=O)Nc1nn(Cc2ccc(C(F)(F)F)cc2)c2ccccc12 [Compound 28, 4-methyl-N-(1-(4-(trifluoromethyl)benzyl)-1H-indazol-3-yl)isoxazole-5-carboxamide]
< 10 | O=C(Nc1nn(Cc2ccc(C(F)(F)F)cc2)c2c(C(F)(F)F)cccc12)c1ccoc1 [Compound 112, N-(7-(trifluoromethyl)-1-(4-(trifluoromethyl)benzyl)-1H-indazol-3-yl)furan-3-carboxamide]
50 | Cc1occc1C(=O)Nc1nn(Cc2ccc(Cl)cc2)c2ccccc12 [Compound 67, N-(1-(4-chlorobenzyl)-1H-indazol-3-yl)-2-methylfuran-3-carboxamide]

The compounds below were run on MDA-MB-231 human breast tumor cells (assay: Boyden-chamber cell migration assay). Conditions: migration 6 h.
Assay type: cell-based
Procedure: Certain tumor cells with fascin expression are listed below.
Exemplifying procedure: MDA-MB-231 cells (5×10^4) or 4T1 Cells (1×10^5) were suspended in 100 μl starvation medium and added to the upper chamber of an insert (6.5 mm diameter, 8 μm pore size; Becton Dickson). The insert was placed in a 24-well plate containing 700 μL starvation medium with or without 10% FBS. […] Migration assays were performed for 6 h and cells are fixed with 3.7% formaldehyde. Cells were stained with crystal violet staining solution, and cells on the upper side of the insert were removed with a cotton swab. Three randomly selected fields (×10 objectives) on the lower side of the insert were photographed, and the migrated cells were counted. Migration was expressed as average number of migrated cells in a field.

IC50 [µM] | Structure (SMILES)
18 | Cc1nocc1C(=O)Nc1nn(Cc2ccc(C(F)(F)F)cc2)c2ccccc12 [Compound 35, 3-methyl-N-(1-(4-(trifluoromethyl)benzyl)-1H-indazol-3-yl)isoxazole-4-carboxamide]
161 | O=C(Nc1nn(Cc2ccc(Cl)cc2)c2ccccc12)c1ccno1 [Compound 66, N-(1-(4-chlorobenzyl)-1H-indazol-3-yl)isoxazole-5-carboxamide]
64 | Cc1nocc1C(=O)Nc1nn(Cc2ccc(Cl)cc2)c2ccccc12 [Compound 65, N-(1-(4-chlorobenzyl)-1H-indazol-3-yl)-3-methylisoxazole-4-carboxamide]
54 | O=C(Nc1nn(Cc2ccc(C(F)(F)F)cc2)c2ccccc12)c1ccno1 [Compound 25, N-(1-(4-(trifluoromethyl)benzyl)-1H-indazol-3-yl)isoxazole-5-carboxamide]
13 | O=C(Nc1nn(Cc2ccc(C(F)(F)F)cc2)c2ccccc12)c1cccnn1 [Compound 49, N-(1-(4-(trifluoromethyl)benzyl)-1H-indazol-3-yl)pyridazine-3-carboxamide]
